Results reported in patent US3965109A, “Certain aryl amino pyridines” (priority 1971, dated 1976).

Key:
[1] = tested on: Puccinia recondita (wheat); experiment: Fungicidal test against foliar disease A (foliage spray plus soil drench); format: in vivo; settings: 100 ppm spray and drench; 10 days
[2] = tested on: Plasmopara viticola (vine); experiment: Fungicidal test against foliar disease C (foliage spray plus soil drench); format: in vivo; settings: 100 ppm spray and drench; 10 days
[3] = tested on: Piricularia oryzae (rice); format: in vivo; settings: 100 ppm spray and drench; 7 days
[4] = tested on: Tetranychus telarius (red spider mites, adults); experiment: Pest toxicity test; format: in vivo; settings: 0.1% by weight; French bean; 3 days
[5] = tested on: Tetranychus telarius (red spider mites, eggs); experiment: Pest toxicity test; format: in vivo; settings: 0.1% by weight; French bean; 3 days
Aphis fabae = experiment: Pest toxicity test; format: in vivo; settings: 0.1% by weight; broad bean; 2 days
Megoura viceae = experiment: Pest toxicity test; format: in vivo; settings: 0.1% by weight; broad bean; 2 days
[6] = tested on: Aedes aegypti (mosquito larvae); experiment: Pest toxicity test; format: in vivo; settings: for Mortality grading (kill): 0.01% by weight, water, 1 day
[7] = tested on: Aedes aegypti (mosquito adults); experiment: Pest toxicity test; format: in vivo; settings: 0.01% by weight; plywood; 1 day
[8] = tested on: Musca domestica (houseflies); experiment: Pest toxicity test, contact test; format: in vivo; settings: 0.1% by weight; milk/sugar; 2 days; flies sprayed directly
[9] = tested on: Pieris brassicae (cabbage white caterpillars); experiment: Pest toxicity test; format: in vivo; settings: 0.1% by weight, 2 days
[10] = tested on: Plutella maculipennis (diamond back moth larvae); experiment: Pest toxicity test; format: in vivo
[11] = tested on: Phaedon cochleariae (mustard beetles); experiment: Pest toxicity test; format: in vivo
[12] = tested on: Agrobacterium tumifaciens; experiment: Antibacterial agar test (B1); format: cell-based; settings: 50 ppm; 5 days
[13] = tested on: Corynebacterium michiganense; experiment: Antibacterial agar test (B2); format: cell-based; settings: 50 ppm; 5 days
Description: (§1) This Example illustrates the activity of compounds used as the active ingredients of compositions according to the invention against a variety of plant bacterial diseases and fungal post-harvest saprophytic diseases. In a test for such activity, 5 milligrams of the compound to be tested was dissolved or suspended in 10 ml. of acetone and enough of this solution or suspension was added to 18 ml. of nutrient agar (for the bacterial diseases) or 16 ml. of 2% malt agar (for the fungal diseases) to give a final concentration of 50 parts per million of the compound under test. A streptomycin preparation (2 ml. containing 100 units per ml.) was added to the malt agar to prevent bacterial contamination of the fungal tests.
(§2) The agar preparations were dried overnight in Petri dishes and inoculated the following morning with the bacterial or fungal diseases using a multipoint inoculator. The antibacterial activity was assessed after 5 days and the antifungal activity after 6 days. The results of the tests are set out in Table 16 (anti bacterial activity) and Table 17 (antifungal activity). The results are graded as in Example 1 above.

Xanthomonas malvacearum = experiment: Antibacterial agar test (B3); format: cell-based; settings: 50 ppm; 5 days
Description: as §1, §2

Erwinia carotovora = experiment: Antibacterial agar test (B4); format: cell-based; settings: 50 ppm; 5 days
Xanthomonas oryzae = format: cell-based; settings: 50 ppm; 5 days
Pseudomonas syringae = experiment: Antibacterial agar test (B6); format: cell-based; settings: 50 ppm; 5 days
Streptomyces scabies = experiment: Antibacterial agar test (B7); format: cell-based; settings: 50 ppm; 5 days
Uncinula necator (vine) = experiment: Fungicidal test against foliar disease D (foliage spray plus soil drench); format: in vivo; settings: 100 ppm spray and drench; 10 days
Lettuce = experiment: Herbicidal test, pre- and post-emergence; format: in vivo; settings: 10 kg/ha; scale 0 to 3 (complete kill)
Tomato = experiment: Herbicidal test, pre- and post-emergence; format: in vivo; settings: 10 kg/ha; scale 0 to 3 (complete kill)
Wheat = experiment: Herbicidal test, pre- and post-emergence; format: in vivo; settings: 10 kg/ha; scale 0 to 3 (complete kill)
Maize = experiment: Herbicidal test, pre- and post-emergence; format: in vivo; settings: 10 kg/ha; scale 0 to 3 (complete kill)
[14] = 0.1% by weight, mustard/paper, 2 days

SMILES	Mortality grading (kill) [4]	Mortality grading (kill) [5]	Mortality grading (kill) (Aphis fabae)	Mortality grading (kill) (Megoura viceae)	Mortality grading (kill) [6]	Mortality grading (kill) [7]	Mortality grading (kill), contact test [8]	Mortality grading (kill) [9]	Mortality grading (kill) ([10]; in vivo)	Mortality grading (kill) ([11]; in vivo)	Antibacterial activity grading B1 [12]	Antibacterial activity grading B2 [13]	Antibacterial activity grading B3 (Xanthomonas malvacearum)	Antibacterial activity grading B4 (Erwinia carotovora)	Antibacterial activity grading B5 (Xanthomonas oryzae)	Antibacterial activity grading B6 (Pseudomonas syringae)	Antibacterial activity grading B7 (Streptomyces scabies)	Amount of disease grading, disease A (Table 4) [1]	Amount of disease grading, disease C (Table 4) [2]	Amount of disease grading, disease D (Table 4) (Uncinula necator (vine))	further results
Fc1nc(F)c(Cl)c(Nc2c(F)c(F)c(F)c3c(F)c(F)c(F)c(F)c23)c1Cl [Compound 20, 3,5-Dichloro-2,6-difluoro-4(1-heptafluoronaphthylamino)pyridine]	3 (3 represents over 90% kill)	3 (3 represents over 90% kill)	2 (2 represents 60 - 90% kill)	2 (2 represents 60 - 90% kill)	1 (1 represents 30 - 49% kill)	0 (O represents less than 30% kill)	0 (O represents less than 30% kill)	0 (O represents less than 30% kill)	3 (key: O represents less than 30% kill; 1 represents 30 - 49% kill; 2 represents 60 - 90% kill; 3 represents over 90% kill; C indicates a chemosterilant effect.; A indicates an antifeeding effect.)	0 (key: O represents less than 30% kill; 1 represents 30 - 49% kill; 2 represents 60 - 90% kill; 3 represents over 90% kill; C indicates a chemosterilant effect.; A indicates an antifeeding effect.)	0 (61 to 100)	3 (0 to 5)	3 (0 to 5)	2 (6 to 25)	1 (26 to 60)	2 (6 to 25)	2 (6 to 25)	–	–	–	Amount of disease grading, disease A [1]: 3 (0 to 5); Amount of disease grading, disease C [2]: 3 (0 to 5); Amount of disease grading, disease E [3]: 2 (6 to 25)
O=[N+]([O-])c1ccc(Nc2c(Cl)c(F)nc(Cl)c2Cl)c(C(F)(F)F)c1 [Compound 44, 2-Fluoro-(4-nitro-2-trifluoromethylanilino)3,5,6-trichlorpyridine]	3 (3 represents over 90% kill)	3 (3 represents over 90% kill)	0 (O represents less than 30% kill)	0 (O represents less than 30% kill)	3 (3 represents over 90% kill)	0 (O represents less than 30% kill)	3 (3 represents over 90% kill)	3 (3 represents over 90% kill)	0 (key: O represents less than 30% kill; 1 represents 30 - 49% kill; 2 represents 60 - 90% kill; 3 represents over 90% kill; C indicates a chemosterilant effect.; A indicates an antifeeding effect.)	0 (key: O represents less than 30% kill; 1 represents 30 - 49% kill; 2 represents 60 - 90% kill; 3 represents over 90% kill; C indicates a chemosterilant effect.; A indicates an antifeeding effect.)	3 (0 to 5)	3 (0 to 5)	3 (0 to 5)	3 (0 to 5)	3 (0 to 5)	3 (0 to 5)	3 (0 to 5)	2 (6 to 25)	3 (0 to 5)	3 (0 to 5)	Amount of disease grading, disease E (Table 4) [3]: 0 (61 to 100); Damage to plants, post-emergence (Lettuce): 3; Damage to plants, pre-emergence (Lettuce): 2; Damage to plants, post-emergence (Tomato): 3; Damage to plants, pre-emergence (Tomato): 3; Damage to plants, post-emergence (Wheat): 0; Damage to plants, pre-emergence (Wheat): 3; Damage to plants, post-emergence (Maize): 1; Damage to plants, pre-emergence (Maize): 0
O=[N+]([O-])c1ccc(Nc2c(Cl)c(F)nc(F)c2Cl)c([N+](=O)[O-])c1 [Compound 1, 3,5-dichloro-2,6-difluoro-4(2,4-dinitroanilinopyridine]	3 (3 represents over 90% kill)	0 (O represents less than 30% kill)	3 (3 represents over 90% kill)	3 (3 represents over 90% kill)	0 (O represents less than 30% kill)	2 (2 represents 60 - 90% kill)	0 (O represents less than 30% kill)	–	0 (key: O represents less than 30% kill; 1 represents 30 - 49% kill; 2 represents 60 - 90% kill; 3 represents over 90% kill; C indicates a chemosterilant effect.; A indicates an antifeeding effect.)	0 (key: O represents less than 30% kill; 1 represents 30 - 49% kill; 2 represents 60 - 90% kill; 3 represents over 90% kill; C indicates a chemosterilant effect.; A indicates an antifeeding effect.)	3 (0 to 5)	3 (0 to 5)	3 (0 to 5)	3 (0 to 5)	3 (0 to 5)	3 (0 to 5)	3 (0 to 5)	–	–	–	abnormal growth effects in larva of mosquitos ([6]; in vivo): abnormal growth effects
O=[N+]([O-])c1ccc(Nc2c(Cl)c(Cl)nc(Cl)c2Cl)c(C(F)(F)F)c1 [Compound 41, 4(4-Nitro-2-trifluoromethylanilino)-tetrachloropyridine]	3 (3 represents over 90% kill)	3 (3 represents over 90% kill)	0 (O represents less than 30% kill)	0 (O represents less than 30% kill)	3 (3 represents over 90% kill)	0 (O represents less than 30% kill)	2 (2 represents 60 - 90% kill)	0 (O represents less than 30% kill)	–	–	3 (0 to 5)	0 (61 to 100)	2 (6 to 25)	1 (26 to 60)	1 (26 to 60)	1 (26 to 60)	0 (61 to 100)	0 (61 to 100)	3 (0 to 5)	3 (0 to 5)	Mortality grading (kill) [10, 14]: 1 (1 represents 30 - 49% kill); Mortality grading (kill) [11, 14]: 2 (2 represents 60 - 90% kill)
